# Assay results from ChEMBL document CHEMBL1201862, “PubChem BioAssay data set” (2004).
#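 The compound was tested at five concentrations on cells cultured in 96-well plates, with a 48-hour exposure period. GI50 = concentration required for 50% inhibition of growth.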 Active and inactive are the calls of the source. Rule as the data show it: active = GI50 up to about 1.1 µM and inactive = higher.
# Columns and labels:
# Test in all cases: NCI-60 cell line screen, 48 h
# MDA-MB-435 = system: MDA-MB-435
# SK-MEL-28 = system: SK-MEL-28
# SF-268 = system: SF-268
# A498 = system: A498
# UACC-62 = system: UACC-62
# PC-3 = system: PC-3
# CAKI-1 = system: CAKI-1
# MDA-N = system: MDA-N
# MCF7 = system: MCF7
# SR = system: SR
# K562 = system: K562
# OVCAR-8 = system: OVCAR-8
# TK-10 = system: TK-10
# SW-620 = system: SW-620
# 786-0 = system: 786-0
# RPMI-8226 = system: RPMI-8226
# SK-MEL-2 = system: SK-MEL-2
# KM12 = system: KM12
# U-251 = system: U-251
# COLO 205 = system: COLO 205
# UO-31 = system: UO-31
# OVCAR-5 = system: OVCAR-5
# OVCAR-4 = system: OVCAR-4
# SNB-19 = system: SNB-19
# SK-OV-3 = system: SK-OV-3
# OVCAR-3 = system: OVCAR-3
# NCI-H23 = system: NCI-H23
# MDA-MB-231 = system: MDA-MB-231
# NCI-H522 = system: NCI-H522
# T47D = system: T47D
# ACHN = system: ACHN
# NCI/ADR-RES = system: NCI/ADR-RES
# Malme-3M = system: Malme-3M
# LOX IMVI = system: LOX IMVI
# UACC-257 = system: UACC-257
# NCI-H460 = system: NCI-H460
# Hs-578T = system: Hs-578T
# A549 = system: A549
# SF-295 = system: SF-295
# SK-MEL-5 = system: SK-MEL-5
# HCT-116 = system: HCT-116
# SN12C = system: SN12C
# HT-29 = system: HT-29
# HOP-62 = system: HOP-62
# HCT-15 = system: HCT-15
# NCI-H226 = system: NCI-H226
# RXF 393 = system: RXF 393
# BT-549 = system: BT-549
# HOP-92 = system: HOP-92
# SF-539 = system: SF-539
# SNB-75 = system: SNB-75
# MOLT-4 = system: MOLT-4
# M14 = system: M14
# EKVX = system: EKVX
# IGROV-1 = system: IGROV-1
# CCRF-CEM = system: CCRF-CEM
# HCC 2998 = system: HCC 2998
smiles,measurement,setting,value
NS(=O)(=O)c1nc(S(=O)(=O)O)c2[nH]cnc2n1,GI50,MDA-MB-435,> 100 µM (inactive)
same,GI50,SK-MEL-28,> 100 µM (inactive)
same,GI50,SF-268,> 100 µM (inactive)
same,GI50,A498,> 100 µM (inactive)
same,GI50,UACC-62,> 100 µM (inactive)
same,GI50,PC-3,> 100 µM (inactive)
same,GI50,CAKI-1,> 100 µM (inactive)
same,GI50,MDA-N,> 100 µM (inactive)
same,GI50,MCF7,> 100 µM (inactive)
same,GI50,SR,> 100 µM (inactive)
same,GI50,K562,> 100 µM (inactive)
same,GI50,OVCAR-8,> 100 µM (inactive)
same,GI50,TK-10,> 100 µM (inactive)
same,GI50,SW-620,> 100 µM (inactive)
same,GI50,786-0,> 100 µM (inactive)
same,GI50,RPMI-8226,> 100 µM (inactive)
same,GI50,SK-MEL-2,> 100 µM (inactive)
same,GI50,KM12,> 100 µM (inactive)
same,GI50,U-251,> 100 µM (inactive)
same,GI50,COLO 205,> 100 µM (inactive)
same,GI50,UO-31,> 100 µM (inactive)
same,GI50,OVCAR-5,> 100 µM (inactive)
same,GI50,OVCAR-4,> 100 µM (inactive)
same,GI50,SNB-19,> 100 µM (inactive)
same,GI50,SK-OV-3,> 100 µM (inactive)
same,GI50,OVCAR-3,> 100 µM (inactive)
same,GI50,NCI-H23,> 100 µM (inactive)
same,GI50,MDA-MB-231,> 100 µM (inactive)
same,GI50,NCI-H522,> 100 µM (inactive)
same,GI50,T47D,> 100 µM (inactive)
same,GI50,ACHN,> 100 µM (inactive)
same,GI50,NCI/ADR-RES,> 100 µM (inactive)
same,GI50,Malme-3M,> 100 µM (inactive)
same,GI50,LOX IMVI,> 100 µM (inactive)
same,GI50,UACC-257,> 100 µM (inactive)
same,GI50,NCI-H460,> 100 µM (inactive)
same,GI50,Hs-578T,> 100 µM (inactive)
same,GI50,A549,> 100 µM (inactive)
same,GI50,SF-295,> 100 µM (inactive)
same,GI50,SK-MEL-5,> 100 µM (inactive)
same,GI50,HCT-116,> 100 µM (inactive)
same,GI50,SN12C,> 100 µM (inactive)
same,GI50,HT-29,> 100 µM (inactive)
same,GI50,HOP-62,> 100 µM (inactive)
same,GI50,HCT-15,> 100 µM
same,GI50,NCI-H226,> 100 µM (inactive)
same,GI50,RXF 393,> 100 µM (inactive)
same,GI50,BT-549,> 100 µM (inactive)
same,GI50,HOP-92,> 100 µM (inactive)
same,GI50,SF-539,> 100 µM (inactive)
same,GI50,SNB-75,> 100 µM (inactive)
same,GI50,MOLT-4,29 µM (inactive)
same,GI50,M14,> 100 µM (inactive)
same,GI50,EKVX,> 100 µM (inactive)
same,GI50,IGROV-1,> 100 µM (inactive)
[O-][N+]1=C2CCC/C(=N/O)C2(O)C2CCCCC21N1CCOCC1 (centres undefined),GI50,MDA-MB-435,> 100 µM (inactive)
same,GI50,SK-MEL-28,> 100 µM (inactive)
same,GI50,SF-268,> 100 µM (inactive)
same,GI50,UACC-62,> 100 µM (inactive)
same,GI50,PC-3,> 100 µM (inactive)
same,GI50,CAKI-1,> 100 µM (inactive)
same,GI50,MDA-N,> 100 µM (inactive)
same,GI50,MCF7,> 100 µM (inactive)
same,GI50,SR,> 100 µM (inactive)
same,GI50,K562,> 100 µM (inactive)
same,GI50,OVCAR-8,> 100 µM (inactive)
same,GI50,TK-10,> 100 µM (inactive)
same,GI50,SW-620,> 100 µM (inactive)
same,GI50,786-0,> 100 µM (inactive)
same,GI50,SK-MEL-2,> 100 µM (inactive)
same,GI50,KM12,> 100 µM (inactive)
same,GI50,CCRF-CEM,> 100 µM (inactive)
same,GI50,U-251,> 100 µM (inactive)
same,GI50,COLO 205,> 100 µM (inactive)
same,GI50,UO-31,> 100 µM (inactive)
same,GI50,OVCAR-5,> 100 µM (inactive)
same,GI50,OVCAR-4,> 100 µM (inactive)
same,GI50,SNB-19,> 100 µM (inactive)
same,GI50,SK-OV-3,> 100 µM (inactive)
same,GI50,OVCAR-3,> 100 µM (inactive)
same,GI50,NCI-H23,> 100 µM (inactive)
same,GI50,MDA-MB-231,> 100 µM (inactive)
same,GI50,NCI-H522,> 100 µM (inactive)
same,GI50,T47D,> 100 µM (inactive)
same,GI50,ACHN,> 100 µM (inactive)
same,GI50,NCI/ADR-RES,> 100 µM (inactive)
same,GI50,Malme-3M,> 100 µM (inactive)
same,GI50,LOX IMVI,> 100 µM (inactive)
same,GI50,UACC-257,> 100 µM (inactive)
same,GI50,NCI-H460,> 100 µM (inactive)
same,GI50,Hs-578T,> 100 µM (inactive)
same,GI50,A549,> 100 µM (inactive)
same,GI50,SF-295,> 100 µM (inactive)
same,GI50,SK-MEL-5,> 100 µM (inactive)
same,GI50,HCC 2998,> 100 µM (inactive)
same,GI50,HCT-116,> 100 µM (inactive)
same,GI50,SN12C,> 100 µM (inactive)
same,GI50,HT-29,> 100 µM (inactive)
same,GI50,HOP-62,> 100 µM (inactive)
same,GI50,HCT-15,> 100 µM
same,GI50,NCI-H226,> 100 µM (inactive)
same,GI50,RXF 393,8.02 µM (inactive)
same,GI50,BT-549,> 100 µM (inactive)
same,GI50,SF-539,> 100 µM (inactive)
same,GI50,SNB-75,> 100 µM (inactive)
same,GI50,MOLT-4,> 100 µM (inactive)
same,GI50,M14,> 100 µM (inactive)
same,GI50,EKVX,> 100 µM (inactive)
same,GI50,IGROV-1,> 100 µM (inactive)
